Columns and labels:
U-2 OS cells = assay: Confocal laser scanning microscopy (CLSM) localisation analysis; format: cell-based, human; details: 30 min incubation, Ex 637 nm, Em >665 nm; for subcellular localisation by CLSM: FIG. 4 and 5
How it was run: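 Live U-2 OS cells imaged by confocal microscopy after 30 min incubation with probe compound, excitation 637 nm, emission >665 nm, at several z depths with solution background removed. Sections merged into maximum projections; per-cell nucleus/cytoplasm fluorescence ratio used as index of DNA binding.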

A549 cells = assay: Constant exposure to probes, time-lapse and flow cytometry after 72 h; format: cell-based, human; details: within 24 hours
Procedure: Timelapse imaging, in accordance with Errington R J et al, Time-lapse microscopy approaches to track cell cycle and lineage progression at the single-cell level, Curr Protoc Cytom. 2013 April; Chapter 12: Unit 12.4, was carried out in relation to cells with exposure to probe compounds.
In this regard, A549 cells were seeded in a 24 well coverslip bottomed-plate, cultured overnight in McCoys media for 24 or 48 hours. The plates were placed onto an inverted automated microscope, with the capacity for acquiring an image sequence of different wells (therefore exposure to different agent labelling). An Axiovert 100 microscope (Carl Zeiss, Welwyn Garden City, UK) was fitted with an incubator for 37° C./5% CO2 maintenance (Solent Scientific, Portsmouth, UK), and an ORCA-ER CCD camera (Hamamatsu, Reading, UK). Illumination was controlled by a shutter in front of the transmission lamp, and an x, y positioning stage with separate z-focus (Prior Scientific, Cambridge, UK) controlled multi-field acquisition. Image capture was controlled using Metamorph software.
Cells were exposed to a constant dose (0-5 μM) or a pulsed dose of 0 or 20 μM agent for 15 minutes followed by washout with warmed full media. […]
A549 cell lines were monitored using time-lapse collection and lineage progression, in constant exposure to compounds of the invention. The effects on cells were also determined. […]

A549 = assay: MTT cellular viability (growth inhibition) assay, A549; format: cell-based; details: Homo sapiens, 0.25-100 μM, 72 h, Table 3
How it was run: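 Cells seeded at 1×10^4 cells/mL in R10, allowed to adhere overnight at 37 °C, 5% CO2. Compounds tested at 0.25–100 μM for 72 h; MTT read-out gave growth-inhibition IC50.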

[1] = Absorption and fluorescence spectra of compounds in PBS or HEPES; format: physicochemical; details: for peak excitation wavelength: excitation wavelength used for fluorescence spectra of FIG. 1A/1B; for fluorescence emission, 540 nm (Ex in PBS): excited at 540 nm; for fluorescence emission, 540 nm (Ex in PBS) / fluorescence emission, λ1 nm (Ex in HEPES) / fluorescence emission, λ1 nm (Ex in PBS): 20 μM; for fluorescence emission, λ1 nm (Ex in HEPES) / fluorescence emission, λ1 nm (Ex in PBS): excited at absorption peak 1 (λ1)
How it was run: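 Compounds (20 μM working solutions) in PBS or HEPES, read in quartz cuvette against buffer baseline, absorbance scanned 280–800 nm. Emission scanned 400–900 nm in 1 nm steps with excitation at each compound's first absorption peak or 540 nm, ten reads per point. DRAQ5 served as reference; spectra normalised to peak.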

Row | IC50 (A549) [µM] | peak excitation wavelength [1] [nm] | fluorescence emission, 540 nm (Ex in PBS) [1] [nm] | fluorescence emission, λ1 nm (Ex in HEPES) [1] [nm] | fluorescence emission, λ1 nm (Ex in PBS) [1] [nm] | SMILES | specific feature of localisation by CLSM (U-2 OS cells) | subcellular localisation by CLSM (U-2 OS cells) | localisation of probe during constant exposure (A549 cells)
1 | 22.5 | 584 | 660 | 660 | 666 | COC(CNC(=O)CCNc1ccc(NCCN(C)C)c2c1C(=O)c1ccccc1C2=O)OC [BST-109, N-(2,2-Dimethoxyethyl)-3-(4-(2-(dimethylamino)ethylamino)-9,10-dioxo-9,10-dihydroanthracen-1-ylamino)propanamide] | whole cell staining | strong nuclear uptake and perinuclear staining, with possible ER accumulation | predominantly in a membrane compartment of the cytoplasm
2 | 22.3 | 583 | 662 | 660 | 665.5 | COC(CC(=O)NCCNc1ccc(NCCN(C)C)c2c1C(=O)c1ccccc1C2=O)OC [BST-110, N-(2-(4-(2-(dimethylamino)ethylamino)-9,10-dioxo-9,10-dihydroanthracen-1-ylamino)ethyl)-3,3-dimethoxypropanamide] | whole cell staining | strong nuclear uptake and perinuclear staining, with possible ER accumulation | predominantly in a membrane compartment of the cytoplasm
